The target in one test is Lck (Homo sapiens, UniProt P06239). To be noted: Lck versus Fyn; cited from earlier work.
The subject of test [1] is CAR-T cells induced death of RAJI-GLuc cells. Kind of test: Effect of drugs on CAR-T cell-induced death of RAJI-GLuc cells (GLuc assay). In kind it is cell-based, human. The note with it: for CAR-T cells induced death of RAJI-pLenti-GLuc cells / CAR-T cell-induced death of RAJI-pLenti-GLuc cells / CAR-T cells induced cell death: CD19Bu12 CAR-T cells; for CAR-T cell-induced death of RAJI-pLenti-GLuc cells: versus media alone; for CAR-T cell induced cell death: FMC63 and CD19MM CAR-T cells, Imatinib 50 nM and 500 nM, Nilotinib 10 nM and 100 nM, Axitinib.

Test [2] concerns Blinatumomab induced cell death of RAJI-GLuc cells mediated by T cells. Put plainly: Blinatumomab-induced, T cell-mediated death of RAJI-GLuc cells and its block by drugs (GLuc assay). The format is cell-based, human.
Test [3] deals with target cells expressing their respective target antigen. Kind of test: Jurkat-NFAT-GFP assay, co-culture with target cells expressing the respective target antigen (Table 28). The note with it: Jurkat-NFAT-GFP cells expressing the CAR; cell line(s) giving greater % GFP positive cells than parental.
Another test relates to NF-κB. Put plainly: NF-κB luciferase reporter assay in 293FT cells. The note with it: upon treatment with AP20187, versus untreated. In kind it is cell-based. Here is the method:
NF-κB reporter assay was carried out essentially as described (Chaudhary et al., Oncogene 18:5738-46, 1999). The indicated constructs were transiently transfected in 293FT cells along with a luciferase reporter construct driven by 4 copies of NF-κB binding site and a RSV-LacZ reporter construct. Cells were left untreated or treated with AP20187, which dimerizes the FKBP domains, resulting in activation of K13 signaling. Approximately 24 hr later, cells were lysed and NF-κB-Luc and LacZ activities measured in cell lysates. NF-κB-Luc activity was normalized relative to LacZ activity to control for difference in transfection efficiency. […] Thus, activity of K13 and Tax can be controlled by fusion with FKBP and subsequent administration of AP20187 when they are expressed alone or as part of CAR constructs.
It would be useful to have novel mutants of K13 with varying levels of NF-κB activity for the purpose of adoptive cellular therapy and other applications. Site-directed mutagenesis was conducted using Quickchange site-directed kit (Stratagene) to generate several point mutants of K13 in which the different amino acids of K13 (SEQ ID NO:2629) were mutated. For example, in the mutant K19A the amino acid Lysine at position 19 is mutated to alanine. […] Approximately 24 hr later, cells were lysed and NF-κB-Luc and LacZ activities measured in cell lysates. […]
A general note: Reporter assays use an easily measured gene product as a stand-in for the process of interest.

The mark [4] stands for this setting: at the indicated concentrations.

Sequence of Lck (P06239 whole entry, species assumed): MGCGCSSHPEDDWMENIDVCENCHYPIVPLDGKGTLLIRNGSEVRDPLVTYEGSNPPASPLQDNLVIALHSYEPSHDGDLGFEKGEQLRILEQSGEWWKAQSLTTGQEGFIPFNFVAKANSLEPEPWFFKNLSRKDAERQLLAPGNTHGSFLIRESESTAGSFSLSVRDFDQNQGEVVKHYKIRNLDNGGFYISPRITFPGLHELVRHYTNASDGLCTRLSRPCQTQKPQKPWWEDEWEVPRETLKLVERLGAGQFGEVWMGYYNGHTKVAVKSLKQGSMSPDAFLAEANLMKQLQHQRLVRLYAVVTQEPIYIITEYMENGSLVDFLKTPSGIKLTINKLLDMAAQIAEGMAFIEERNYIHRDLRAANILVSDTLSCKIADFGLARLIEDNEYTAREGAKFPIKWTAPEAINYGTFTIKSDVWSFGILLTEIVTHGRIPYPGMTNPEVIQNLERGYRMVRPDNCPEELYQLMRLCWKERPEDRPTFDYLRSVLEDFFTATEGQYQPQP

In the case of `COc1cc(-c2nn([C@H]3CC[C@H](N4CCN(C(C)=O)CC4)CC3)c3ncnc(N)c23)ccc1NC(=O)c1cc2ccccc2n1C` [A-770041], at Lck, the “selective against Fyn” value was 300 fold. Also, in test [1] (100 nM and 200 nM), the “CAR-T cells induced death of RAJI-pLenti-GLuc cells” value is “near complete inhibition”. Moreover, the entries for the “cell death induced by combination of Blinatumomab with T cells” value in test [2] (100 nM) and in test [2] (200 nM) were “partially blocked” and “complete inhibition”, respectively. Turning to `COc1cc(Nc2ncc3c(n2)-c2ccc(Cl)cc2C(c2c(F)cccc2OC)=NC3)ccc1C(=O)O` [Alisertib], the “CAR-T cell-induced death of RAJI-pLenti-GLuc cells” value in test [1] is reported as “mild to modest inhibition”. In test [2] (setting [4]), the “Blinatumomab induced cell death mediated by T cells” value is recorded as “only a minimal effect”. As to `CC(C)c1cc(C(C)C)c(CC(=O)NS(=O)(=O)Oc2c(C(C)C)cccc2C(C)C)c(C(C)C)c1` [Avasimibe], the “CAR-T cells induced cell death” value in test [1] (100 nM) is “no significant effect”; in test [1] (1 μM), “completely blocked”. Moreover, the “Blinatumomab induced cell death mediated by T cells” value in test [2] (1 μM) is on record as “blocked”. Take `CNC(=O)c1ccccc1Sc1ccc2c(/C=C/c3ccccn3)n[nH]c2c1` [Axitinib]: the “CAR-T cell induced cell death” value in test [1] was “no effect”. For `COc1cc(Nc2ncc(F)c(Nc3ccc4c(n3)N(COP(=O)(O)O)C(=O)C(C)(C)O4)n2)cc(OC)c1OC` [Fosatamatinib], the “CAR-T cell-induced death of RAJI-pLenti-GLuc cells” value in test [1] is “mild to modest inhibition”. Moreover, the “Blinatumomab induced cell death mediated by T cells” value in test [2] (setting [4]) is reported as “only a minimal effect”.

With `Cc1ccc(NC(=O)c2ccc(CN3CCN(C)CC3)cc2)cc1Nc1nccc(-c2cccnc2)n1` [Imatinib], the CAR-induced cell death result in test [1] (CD19MM CAR-T cells, E:T 5:1, 4 h, indicated concentrations) is “no effect”. The “CAR-T cell induced cell death” value in test [1] is “no effect”. With `Cc1cn(-c2cc(NC(=O)c3ccc(C)c(Nc4nccc(-c5cccnc5)n4)c3)cc(C(F)(F)F)c2)cn1` [Nilotinib], the “CAR-T cell induced cell death” value in test [1] is on record as “no effect”. `CN1CCN(CCOc2cc(OC3CCOCC3)c3c(Nc4c(Cl)ccc5c4OCO5)ncnc3c2)CC1` [Saracatinib]: the “CAR-T cells induced death of RAJI-pLenti-GLuc cells” value in test [1] (concentration not given) is “no significant effect”. Turning to “CD8SP-CD22-m971-(vL-vH)-Myc-BBz-T2A-PAC(091515-A02)[SEQ ID NO: 1519]”, the “Positive Cell Line on co-culture assay” value in test [3] is on record as “RAJI, NALM6”. Same read-out and setting: the same measure for “CD8SP-GD3-KM-641-(vL-vH)-Myc-z-P2A-K13-Flag-T2A-PAC(051016-D04)[SEQ ID NO: 1065]”: “MEL624”. As to “FKBPX2-K13: K13 in fusion with two copies of FKBP dimerization domain”, the “K13- and HTLV2-Tax RS mutant-induced NF-κB-Luc activity” value with NF-κB is “increase”.

The record behind these values is patent US20240166755A1, “CHIMERIC ANTIGEN RECEPTORS TARGETING CANCER” (University of Southern California, priority 2016, published 2024).
